Earlier results in patent US9884844B2 (priority 2012, dated 2018).

Details: rather increase it at high dose

In the case of O=C1NCN(c2ccccc2)C12CCN([C@@H]1CC[C@H]3CCCc4cccc1c43)CC2 [Ro64-6198], the “effect on alcohol drinking” value is given as “failed to decrease alcohol drinking”.
